Data taken from patent publication US9156818B2, “Hepatitis C virus inhibitors” (Enanta Pharmaceuticals, Inc., priority 2009, dated 2015).

test system: HCV 1b genotype replicon; assay: HCV genotype-1b replicon assay (qRT-PCR or luciferase); format: cell-based; details: Hepatitis C virus; HCV 1b replicon cell line (SGR 11-7 or Huh-luc/neo-ET); qRT-PCR or luciferase readout; read-out: Genotype-1b replicon EC50 Range
Description: HCV replicon cell lines (kindly provided by R. Bartenschlager) isolated from colonies as described by Lohman et. al. (Lohman et al. (1999) Science 285: 110-113, expressly incorporated by reference in its entirety) and used for all experiments. The HCV replicon has the nucleic acid sequence set forth in EMBL Accession No.: AJ242651, the coding sequence of which is from nucleotides 1801 to 8406.
The coding sequence of the published HCV replicon was synthesized and subsequently assembled in a modified plasmid pBR322 (Promega, Madison, Wis.) using standard molecular biology techniques. One replicon cell line (“SGR 11-7”) stably expresses HCV replicon RNA which consists of (i) the HCV 5′UTR fused to the first 12 amino acids of the capsid protein, (ii) the neomycin phosphotransferase gene (neo), (iii) the IRES from encephalomyocarditis virus (EMCV), and (iv) HCV NS2 to NS5B genes and the HCV 3′UTR. Another replicon cell line (“Huh-luc/neo-ET”) described by Vrolijk et. al. (Vrolijk et. al. (2003) Journal of Virological Methods 110:201-209, expressly incorporated by reference in its entirety) stably expresses HCV replicon RNA which consists of (i) the HCV 5′UTR fused to the first 12 amino acids of the capsid protein, (ii) the firefly luciferase reporter gene, (iii) the ubiquitin gene, (iv) the neomycin phosphotransferase gene (neo), (v) the IRES from encephalomyocarditis virus (EMCV), and (vi) HCV NS3 to NS5B genes that harbor cell culture adaptive mutations (E1202G, T12801, K1846T) and the HCV 3′UTR.
These cell lines were maintained at 37° C., 5% CO2, 100% relative humidity in DMEM (Cat#11965-084, Invitrogen), with 10% fetal calf serum (“FCS”, Invitrogen), 1% non-essential amino acids (Invitrogen), 1% of Glutamax (Invitrogen), 1% of 100× penicillin/streptomycin (Cat#15140-122, Invitrogen) and Geneticin (Cat#10131-027, Invitrogen) at 0.75 mg/ml or 0.5 mg/ml for 11-7 and Huh-luc/neo-ET cells, respectively.
EC50 values of single agent compounds and combinations were determined by HCV RNA detection using quantitative RT-PCR, according to the manufacturer's instructions, with a TAQMAN® One-Step RT-PCR Master Mix Reagents Kit (Cat# AB 4309169, Applied Biosystems) on an ABI Model 7500 thermocycler. The TaqMan primers used for detecting and quantifying HCV RNA were obtained from Integrated DNA Technologies. HCV RNA was normalized to GAPDH RNA levels in drug-treated cells, which was detected and quantified using the Human GAPDH Endogenous Control Mix (Applied Biosystems, AB 4310884E). Total cellular RNA was purified from 96-well plates using the RNAqueous 96 kit (Ambion, Cat# AM1812). Chemical agent cytotoxicity was evaluated using an MTS assay according to the manufacturer's directions (Promega).
Since clinical drug resistance often develops in viral infections following single agent therapies, there is a need to assess the additive, antagonistic, or synergistic properties of combination therapies. We use the HCV replicon system to assess the potential use of the compound of the present invention or in combination therapies with Interferon alpha, cyclosporine analogs and inhibitors targeting other HCV proteins. The acute effects of a single or combinations of drugs are studied in the “Huh-luc/neo-ET” replicon with each chemical agent titrated in an X or Y direction in a 6 point two-fold dilution curve centered around the EC50 of each drug. Briefly, replicon cells are seeded at 7,000 cells per well in 90 ul DMEM (without phenol red, Invitrogen Cat.#31053-036) per well with 10% FCS, 1% non-essential amino acids, 1% of Glutamax and 1% of 1 OOX penicillin/streptomycin and incubated overnight at 37° C., 5% CO2, 100% relative humidity. […]

| Structure (SMILES) | EC50 [nM] |
| --- | --- |
| COC(=O)N[C@H](C(=O)N1CCC[C@H]1c1ncc(-c2ccc(-c3ccc(-c4cnc([C@@H]5[C@H]6CC[C@H](C6)N5C(=O)[C@@H](NC(=O)OC)C(C)C)[nH]4)cc3)cc2)[nH]1)C(C)C [Example 83] | < 1 |
| COC(=O)N[C@H](C(=O)N1CCC[C@H]1c1ncc(-c2ccc(-c3ccc(-c4cnc([C@H]5[C@@H]6CC[C@@H](C6)N5C(=O)[C@@H](NC(=O)OC)C(C)C)[nH]4)cc3)cc2)[nH]1)C(C)C [Example 246] | < 1 |
| COC(=O)N[C@H](C(=O)N1CCC[C@H]1c1nc2cc(C#Cc3ccc(-c4cnc([C@@H]5[C@H]6CC[C@H](C6)N5C(=O)[C@@H](NC(=O)OC)C(C)C)[nH]4)cc3)ccc2[nH]1)C(C)C [Example 319] | < 1 |
| COC(=O)N[C@H](C(=O)N1CCC[C@H]1c1nc(-c2ccc(C#Cc3ccc4[nH]c([C@@H]5[C@H]6CC[C@H](C6)N5C(=O)[C@@H](NC(=O)OC)C(C)C)nc4c3)cc2)c[nH]1)C(C)C [Example 338] | < 1 |
| COC(=O)N[C@H](C(=O)N1CCC[C@H]1c1nc(-c2ccc(C#Cc3ccc4[nH]c([C@@H]5C6CCC(CC6)N5C(=O)[C@@H](NC(=O)OC)C(C)C)nc4c3)cc2)c[nH]1)C(C)C [Example 344] | < 1 |
| COC(=O)N[C@H](C(=O)N1[C@@H]2CC[C@@H](C2)[C@H]1c1ncc(-c2ccc(C#Cc3ccc4[nH]c([C@@H]5[C@H]6CC[C@H](C6)N5C(=O)[C@@H](NC(=O)OC)C(C)C)nc4c3)cc2)[nH]1)C(C)C [Example 346] | < 1 |
| COC(=O)N[C@H](C(=O)N1CCC[C@H]1c1nc(-c2ccc(-c3ccc(-c4ccc5[nH]c([C@@H]6[C@H]7CC[C@H](C7)N6C(=O)[C@@H](NC(=O)OC)C(C)C)nc5c4)cc3)cc2)c[nH]1)C(C)C [Example 348] | < 1 |
| COC(=O)N[C@H](C(=O)N1CCC[C@H]1c1nc(-c2ccc3cc(-c4ccc5[nH]c([C@@H]6[C@H]7CC[C@H](C7)N6C(=O)[C@@H](NC(=O)OC)C(C)C)nc5c4)ccc3c2)c[nH]1)C(C)C [Example 350] | < 1 |
